Laboratory results: US7256203B2, “Dicationic 2,5-diarylfuran aza-analogs as anti-protozoan agents” (The University of North Carolina at Chapel Hill, priority 2002, dated 2007)
Where a name gives a salt, the structure may show the parent alone. Read-outs that look alike come from different tables or passages of the source.

Assays:
[1] = test system: Plasmodium falciparum; assay: In vitro anti-protozoan data, P. f.; format: cell-based
[2] = test system: Trypanosoma brucei rhodesiense; assay: In vitro anti-protozoan data, T. b. r.; format: cell-based
[3] = test system: Leishmania donovani; assay: In vitro anti-protozoan data, L. d.; format: cell-based
[4] = test system: STIB900 strain of T. b. r.; assay: Mouse model of virulent STIB900 strain of T. b. r.; format: in vivo
[5] = test system: T. b. r.; assay: CNS model in mice (2nd stage human African trypanosomiasis); format: in vivo; details: through day 120 of an experiment slated for 180 days
[6] = Plasmodium falciparum, in vitro, read-out: P. f. IC50
[7] = Trypanosoma brucei, RHODESIENSE, in vitro, read-out: T. b. r. IC50
[8] = in vitro, read-out: T. b. r. IC50
[9] = Plasmodium falciparum, in vitro, read-out: IC-50 values versus Plasmodium falciparum (p.f.)

SMILES	melting point	IC50 [1, 6]	IC50 [2, 7]	IC50 ([3]; Leishmania donovani)	further results
CC(=O)ONC(=N)c1ccc(-c2ccc(-c3ccc(C(=N)NOC(C)=O)cn3)o2)nc1 [Compound 23, 2,5-Bis[5-(N-acetoxycarbamimidoyl)-2-pyridyl)furan]	299 to 300 °C	–	–	–	–
CC(=O)ONC(=N)c1ccc(-c2ccc(-c3ccc(C(=N)NOC(C)=O)cc3C)o2)nc1 [Compound 30, N-Acetoxy-6-{5-[4-(N-acetoxycarbamimidoyl)-2-methyl-phenyl]-furan-2-yl}-nicotinamidine]	203 to 205 °C	–	–	–	–
N=C(N)c1ccc(-c2ccc(-c3ccc(C(=N)N)cn3)o2)nc1 [Compound 24, 2,5-Bis[5-amidine-2-pyridyl)furan]	–	–	–	–	IC50 ([1]; in vitro, read-out: P. f. IC50): 0.083 µM; IC50 [3]: 193 µM; IC50 [2, 8]: 0.021 µM
CC(=O)ONC(=N)c1ccc(-c2ccc(-c3ccc(C(=N)NOC(C)=O)nc3)o2)cc1 [Compound 19, N -Acetoxy-5-{5-[4-(N-Acetoxycarbamimidoyl)-phenyl]-furan-2-yl}-pyridine-2-carboxamidine]	267 to 270 °C	–	–	–	–
N=C(N)c1ccc(-c2ccc(-c3ccc(C(=N)N)nc3)o2)cc1 [Compound 20, 5-[5-(4-Carbamimidoyl-phenyl)-furan-2-yl]-pyridine-2-carboxamidine actate salt]	–	–	–	–	IC50 ([1]; in vitro, read-out: P. f. IC50): 0.0183 µM; IC50 [3]: 47 µM; IC50 [2, 8]: 0.0031 µM
CC(=O)ONC(=N)c1ccc(Cc2ccc(-c3ccc(C(=N)NOC(C)=O)cn3)o2)cc1 [Compound 37, N-Acetoxy-6-{5-[4-(N-acetoxycarbamimidoyl)benzyl]-furan-2-yl}-nicotinamidine]	194 to 196 °C	–	–	–	–
N=C(NO)c1ccc(-c2ccc(-c3ccc(C(=N)NO)cn3)o2)cc1 [Compound 4, N-Hydroxy-6-{5-[4-(N-hydroxycarbamimidoyl)-phenyl]-furan-2-yl}-nicotinamidine]	–	0.0043 µM	120 µM	> 195 µM	IC50 [1, 9]: < 0.01 µM
N=C(NO)c1ccc(-c2ccc(-c3ccc(C(=N)NO)nc3)o2)cc1 [Compound 17, N-Hydroxy-5-{5-[4-(N-hydroxycarbamimidoyl)-phenyl]-furan-2-yl}-pyridine-2-carboxamidine]	276 to 279 °C	> 11.7 µM	200 µM	–	–
CONC(=N)c1ccc(-c2ccc(-c3ccc(C(=N)NOC)cn3)o2)nc1 [Compound 27, 2,5-Bis[5-(N-methoxycarbamimidoyl)-2-pyridyl)furan]	–	0.00177 µM	11.1 µM	> 166 µM	IC50 [1, 9]: < 0.01 µM
CONC(=N)c1ccc(-c2ccc(-c3ccc(C(=N)NOC)cn3)o2)cc1 [Compound 5, N-Methoxy-6-{5-[4-(N-methoxy-carbamimidoyl)-phenyl]-furan-2-yl}-nicotinamidine]	–	0.0049 µM	37.1 µM	113 µM	cure of virulent STIB900 strain of T. b. r. in a mouse model [4]: cure; IC50 [1, 9]: < 0.01 µM; parasite free mice in the CNS model [5]: parasite free mice
N=C(NO)c1ccc(Cc2ccc(-c3ccc(C(=N)NO)cn3)o2)cc1 [Compound 36, N-Hydroxy-6-{5-[4-(N-hydroxycarbamimidoyl)benzyl]-furan-2-yl}-nicotinamidine]	214 to 216 °C	–	–	–	–
CONC(=N)c1ccc(-c2ccc(-c3ccc(C(=N)NOC)cn3)s2)cc1 [Compound 12, N-Methoxy-6-{5-[4-(N-methoxy-carbamimidoyl)-phenyl]-thiophn-2-yl}-nicotinamidine]	–	–	–	–	IC50 ([1]; in vitro, read-out: P. f. IC50): 0.133 µM; IC50 [2, 8]: 9.43 µM
N=C(N)c1ccc(-c2ccc(-c3ccc(C(=N)N)cn3)o2)cc1 [Compound 7, 6-[5-(4-Carbamimidoyl-phenyl)-furan-2-yl]-nicotinamidine]	–	–	0.007 µM	101 µM	cure of virulent STIB900 strain of T. b. r. in a mouse model [4]: cure; IC50 ([1]; Plasmodium falciparum, read-out: IC-50 values versus Plasmodium falciparum (p.f.)): < 0.01 µM; IC50 ([1]; Plasmodium falciparum, read-out: P. f. IC50): 0.0065 µM; IC50 ([2]; Trypanosoma brucei, RHODESIENSE, read-out: IC-50 values versus Trypanosoma brucei rhodesiense (T.b.r.)): < 0.01 µM

Further lines, with some results ahead:

melting point	IC50 [1, 6]	IC50 [2, 7]	IC50 ([3]; Leishmania donovani)	SMILES	further results
142 to 143 °C	8.5 µM	6.5 µM	–	CONC(=N)c1ccc(-c2ccc(-c3ccc(C(=N)NOC)nc3)o2)cc1 [Compound 18, N-Methoxy-5-{5-[4-(N-methoxycarbamimidoyl)-phenyl]-furan-2-yl}-pyridin-2-carboxamidine]	–
293 to 295 °C (dec.)	> 10.4 µM	> 187 µM	> 187 µM	N=C(NO)c1ccc(-c2ccc(-c3ccc(C(=N)NO)cn3)s2)cc1 [Compound 11, N-Hydroxy-6-{5-[4-(N-hydroxycarbamimidoyl)-phenyl]-thiophen-2-yl}-nicotinamidine]	–
272 to 274 °C (dec.)	> 0.0102 µM	55.8 µM	77 µM	N=C(NO)c1ccc(-c2ccc(-c3ccc(C(=N)NO)cn3)o2)nc1 [Compound 22, 2,5-Bis[5-(N-hydroxycarbamimidoyl)-2-pyridyl)furan]	–
230 to 231 °C	–	–	–	N=C(NO)c1ccc(-c2ccc(C=Cc3ccccc3)o2)nc1 [Compound 33, N-Hydroxy-6-(5-styryl-furan-2-yl)-nicotinamidine]	–
196 to 198 °C	–	–	–	Cc1cc(C(=N)NO)ccc1-c1ccc(-c2ccc(C(=N)NO)cn2)o1 [Compound 29, N-Hydroxy-6-{5-[4-(N-hydroxycarbamimidoyl)-2-methyl-phenyl]-furan-2-yl}-nicotinamidine]	–
